Laboratory results published in ChEMBL document CHEMBL1201862, “PubChem BioAssay data set” (2004).
The source made the active and inactive calls.

Key:
[1] = Luminescence Cell-Based Dose Response HTS to Identify Inhibitors of 5'UTR Stem-Loop Driven Prion Protein mRNA Translation in H4 Neuroglioblastoma Cells. [Related pubchem assays: 1827 (Project Summary), 1813 (Primary HTS)]; format: functional
[2] = viability of PTEN-deleted HCT116 cells – cell-based, HCT116 PTEN knockout, dose response (AID 1047); format: functional;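 note: HCT116 colon tumor cells with PTEN knocked out; cells exposed to compound for 60 hours before readout; potency for loss of cell viability measured by luminescence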
[3] = alpha-synuclein stem-loop luciferase translation blockers – H4 neuroglioma cells, luminescence, confirmation (AID 1988); format: functional, cell-based
[4] = molecular target: T1, Heat shock factor protein 1 (Mus musculus, UniProt P38532); assay: decrease of HSF1-responsive luciferase luminescence – cell-based, NIH3T3, dose retest, confirmation (AID 2382); format: functional;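 note: NIH3T3 fibroblasts with HSF1-driven luciferase reporter stressed by proteasome inhibitor MG132; luminescence from HSF1-driven luciferase expression after 8 hours of MG132 stress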
T1 sequence (P38532 whole entry): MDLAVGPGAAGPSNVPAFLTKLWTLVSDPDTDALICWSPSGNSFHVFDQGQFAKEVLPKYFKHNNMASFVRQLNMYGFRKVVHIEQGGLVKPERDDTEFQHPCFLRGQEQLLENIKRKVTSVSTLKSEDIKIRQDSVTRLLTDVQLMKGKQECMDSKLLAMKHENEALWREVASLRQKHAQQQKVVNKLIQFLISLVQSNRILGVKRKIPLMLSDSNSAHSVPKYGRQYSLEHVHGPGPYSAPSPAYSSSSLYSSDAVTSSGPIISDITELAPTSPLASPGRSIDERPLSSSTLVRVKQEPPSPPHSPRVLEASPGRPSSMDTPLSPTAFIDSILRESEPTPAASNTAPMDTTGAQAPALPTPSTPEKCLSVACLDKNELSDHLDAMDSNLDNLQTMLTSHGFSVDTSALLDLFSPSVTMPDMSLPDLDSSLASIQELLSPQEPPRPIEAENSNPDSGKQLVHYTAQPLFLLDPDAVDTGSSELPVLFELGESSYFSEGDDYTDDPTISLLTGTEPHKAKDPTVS

[5] = HEK-293T viability loss after treatment – luminescence, T-cell screen hits, cytotoxicity control for TCR NF-kB inhibitor project, dose response (AID 489026); format: functional, cell-based;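 note: cells exposed to compound about 14 hours before the viability readout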
[6] = luciferase reporter signal suppression in cells – H4 neuroglioma cells, luminescence, dose response (AID 1990); format: functional, cell-based
[7] = Trypanosoma cruzi growth suppression in host cells – NIH3T3 host cells, beta-gal luminescence, confirmation (AID 2044); format: functional, cell-based;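 note: intracellular parasites grown in NIH/3T3 mouse fibroblasts as host cells; luminescent beta-galactosidase reporter signal from transgenic T. cruzi replicating inside host cells; inhibitors lower the luminescence signal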
[8] = NIH3T3 cell viability loss – ATP luminescence, mouse fibroblasts, counter-screen, dose response (AID 2010); format: functional, cell-based;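 note: cells exposed to compound for about 90 hours before reading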
[9] = viability of HCT116 lacking mutant beta-catenin – cell-based, human colon tumor, dose response (AID 1045); format: functional;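 note: HCT116 colon tumor cells with beta catenin knocked out; cells exposed to compound for 60 hours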
[10] = molecular target: T2, Zinc finger protein mex-5 (Caenorhabditis elegans, UniProt Q9XUB2); assay: potency of MEX-5 RNA-binding blockers – biochemical, C. elegans, fluorescence polarization, dose response (AID 1960)
T2 sequence (Q9XUB2 whole entry): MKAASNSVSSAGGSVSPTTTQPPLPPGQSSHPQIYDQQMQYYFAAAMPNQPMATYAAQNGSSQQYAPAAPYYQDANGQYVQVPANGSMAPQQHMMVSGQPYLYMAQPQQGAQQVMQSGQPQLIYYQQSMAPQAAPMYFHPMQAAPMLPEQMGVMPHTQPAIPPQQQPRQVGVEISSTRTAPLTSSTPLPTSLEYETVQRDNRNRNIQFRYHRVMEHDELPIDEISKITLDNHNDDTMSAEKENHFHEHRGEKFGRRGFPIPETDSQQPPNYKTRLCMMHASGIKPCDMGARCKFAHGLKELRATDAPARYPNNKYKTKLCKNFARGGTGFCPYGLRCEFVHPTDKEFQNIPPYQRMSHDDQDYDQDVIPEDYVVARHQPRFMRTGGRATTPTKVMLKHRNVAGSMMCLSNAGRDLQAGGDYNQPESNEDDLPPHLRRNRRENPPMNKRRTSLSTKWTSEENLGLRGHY

[11] = molecular target: T3, Short transient receptor potential channel 4 (Mus musculus, UniProt Q9QUQ5); assay: calcium entry via TRPC4 opening agents – cell-based, HEK293 TRPC4/mu-opioid, Fluo-4 calcium, dose response (AID 434937); format: functional
T3 sequence (Q9QUQ5 whole entry): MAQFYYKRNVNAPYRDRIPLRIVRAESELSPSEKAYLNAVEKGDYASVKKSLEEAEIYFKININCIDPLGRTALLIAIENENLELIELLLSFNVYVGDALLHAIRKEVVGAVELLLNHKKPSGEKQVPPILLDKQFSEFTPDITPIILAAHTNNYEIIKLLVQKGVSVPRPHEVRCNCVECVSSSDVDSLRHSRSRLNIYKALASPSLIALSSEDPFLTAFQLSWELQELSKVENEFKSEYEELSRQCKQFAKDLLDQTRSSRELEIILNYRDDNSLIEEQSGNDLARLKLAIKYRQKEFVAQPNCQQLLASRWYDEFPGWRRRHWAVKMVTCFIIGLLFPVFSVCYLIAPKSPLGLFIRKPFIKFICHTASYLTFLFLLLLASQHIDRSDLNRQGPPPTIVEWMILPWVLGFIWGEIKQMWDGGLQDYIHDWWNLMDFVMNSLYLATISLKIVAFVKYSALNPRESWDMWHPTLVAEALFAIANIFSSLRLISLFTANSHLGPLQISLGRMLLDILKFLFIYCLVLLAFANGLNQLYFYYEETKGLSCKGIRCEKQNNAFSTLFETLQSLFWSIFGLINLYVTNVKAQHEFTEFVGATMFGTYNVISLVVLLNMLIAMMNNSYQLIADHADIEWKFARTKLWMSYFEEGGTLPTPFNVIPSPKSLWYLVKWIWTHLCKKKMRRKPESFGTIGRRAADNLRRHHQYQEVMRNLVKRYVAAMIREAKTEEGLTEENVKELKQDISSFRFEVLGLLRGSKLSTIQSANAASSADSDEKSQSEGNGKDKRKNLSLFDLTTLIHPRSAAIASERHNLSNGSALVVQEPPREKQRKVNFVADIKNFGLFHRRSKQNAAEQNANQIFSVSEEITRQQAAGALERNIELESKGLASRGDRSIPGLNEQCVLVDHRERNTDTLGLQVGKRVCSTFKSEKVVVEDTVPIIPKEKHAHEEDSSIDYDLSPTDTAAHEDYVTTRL

[12] = molecular target: T4, RNA-binding protein pos-1 (Caenorhabditis elegans, UniProt G5EF15); assay: disruptors of C. elegans POS-1 RNA interaction – biochemical, fluorescence polarization, dose response (AID 1964);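 note: purified POS-1 fused to maltose binding protein made in E. coli; potency of compounds blocking POS-1 binding to fluorescent RNA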
T4 sequence (G5EF15 whole entry): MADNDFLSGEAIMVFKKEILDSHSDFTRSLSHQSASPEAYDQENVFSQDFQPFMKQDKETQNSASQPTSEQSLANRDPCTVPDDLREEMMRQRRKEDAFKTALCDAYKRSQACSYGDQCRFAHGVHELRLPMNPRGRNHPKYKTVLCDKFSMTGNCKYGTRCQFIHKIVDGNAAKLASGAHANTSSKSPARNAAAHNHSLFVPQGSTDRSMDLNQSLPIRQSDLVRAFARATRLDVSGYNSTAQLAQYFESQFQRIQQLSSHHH

Genome polyprotein = Genome polyprotein (dengue virus type 2, UniProt P29990); assay: flavivirus cap methylation enzyme inhibition – biochemical, confirmation dose response, primary screen (AID 588689); format: functional
Genome polyprotein, sequence (P29990 2492-3391 limits assumed): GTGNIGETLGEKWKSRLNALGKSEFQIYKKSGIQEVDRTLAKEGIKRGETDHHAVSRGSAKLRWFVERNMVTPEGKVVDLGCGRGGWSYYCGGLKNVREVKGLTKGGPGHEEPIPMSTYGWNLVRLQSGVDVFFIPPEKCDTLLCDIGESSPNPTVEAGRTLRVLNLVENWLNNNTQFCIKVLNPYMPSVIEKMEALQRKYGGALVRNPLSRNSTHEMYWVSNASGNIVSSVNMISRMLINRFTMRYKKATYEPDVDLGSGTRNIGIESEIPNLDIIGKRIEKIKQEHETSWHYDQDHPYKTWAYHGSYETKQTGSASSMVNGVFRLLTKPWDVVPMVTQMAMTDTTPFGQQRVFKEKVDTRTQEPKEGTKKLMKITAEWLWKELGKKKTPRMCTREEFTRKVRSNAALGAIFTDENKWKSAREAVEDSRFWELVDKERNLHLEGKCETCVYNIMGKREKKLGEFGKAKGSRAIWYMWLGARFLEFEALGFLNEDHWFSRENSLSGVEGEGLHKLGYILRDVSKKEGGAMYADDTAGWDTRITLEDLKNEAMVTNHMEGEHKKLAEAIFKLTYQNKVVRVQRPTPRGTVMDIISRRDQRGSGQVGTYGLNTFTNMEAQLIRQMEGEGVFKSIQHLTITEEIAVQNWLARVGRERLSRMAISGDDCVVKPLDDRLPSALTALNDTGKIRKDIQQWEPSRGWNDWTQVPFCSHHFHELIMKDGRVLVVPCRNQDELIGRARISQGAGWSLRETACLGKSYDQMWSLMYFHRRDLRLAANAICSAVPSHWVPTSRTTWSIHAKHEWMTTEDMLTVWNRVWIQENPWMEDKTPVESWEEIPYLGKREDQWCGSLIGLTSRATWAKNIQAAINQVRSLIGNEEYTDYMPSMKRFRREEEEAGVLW

[13] = off-target signal loss in HeLa-CEM21 co-culture – HeLa F-luc CTL cells, cherry-picked, counter-screen for HIV-1 Env fusion inhibitor project, dose response (AID 652040); format: functional, cell-based;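 note: potency for signal decrease marking cytotoxic or nonspecific inhibition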
[14] = HIV-1 AD8 envelope cell-cell fusion blockers – cherry-pick, dose response (AID 652062); format: functional, cell-based;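 note: luciferase signal from cell-cell fusion driven by HIV-1 clade B AD8 Env; potency is for inhibitors of fusion seen as a drop in luminescence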
[15] = blockers of HIV-1 ZM109 envelope-driven cell-cell fusion – HeLa effector, CEM target cells, luciferase, cherry-pick, dose response (AID 652058); format: functional, cell-based;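 note: luciferase signal from HIV-1 Env mediated cell-cell fusion of effector and target cells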
[16] = blockers of HIV-1 envelope-mediated cell-cell fusion – cherry-pick, dose response (AID 652057); format: functional, cell-based
Fatty acid synthase [17] = molecular target: T5, Fatty acid synthase (Homo sapiens, UniProt P49327); assay: inhibition of human FAS-TE enzyme activity – biochemical, kinetic fluorescence intensity, dose response (AID 624326); format: functional;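 note: rate of fluorescence rise from hydrolysis of a fluorogenic O-methyl fluorescein ester substrate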
T5 sequence (P49327 whole entry): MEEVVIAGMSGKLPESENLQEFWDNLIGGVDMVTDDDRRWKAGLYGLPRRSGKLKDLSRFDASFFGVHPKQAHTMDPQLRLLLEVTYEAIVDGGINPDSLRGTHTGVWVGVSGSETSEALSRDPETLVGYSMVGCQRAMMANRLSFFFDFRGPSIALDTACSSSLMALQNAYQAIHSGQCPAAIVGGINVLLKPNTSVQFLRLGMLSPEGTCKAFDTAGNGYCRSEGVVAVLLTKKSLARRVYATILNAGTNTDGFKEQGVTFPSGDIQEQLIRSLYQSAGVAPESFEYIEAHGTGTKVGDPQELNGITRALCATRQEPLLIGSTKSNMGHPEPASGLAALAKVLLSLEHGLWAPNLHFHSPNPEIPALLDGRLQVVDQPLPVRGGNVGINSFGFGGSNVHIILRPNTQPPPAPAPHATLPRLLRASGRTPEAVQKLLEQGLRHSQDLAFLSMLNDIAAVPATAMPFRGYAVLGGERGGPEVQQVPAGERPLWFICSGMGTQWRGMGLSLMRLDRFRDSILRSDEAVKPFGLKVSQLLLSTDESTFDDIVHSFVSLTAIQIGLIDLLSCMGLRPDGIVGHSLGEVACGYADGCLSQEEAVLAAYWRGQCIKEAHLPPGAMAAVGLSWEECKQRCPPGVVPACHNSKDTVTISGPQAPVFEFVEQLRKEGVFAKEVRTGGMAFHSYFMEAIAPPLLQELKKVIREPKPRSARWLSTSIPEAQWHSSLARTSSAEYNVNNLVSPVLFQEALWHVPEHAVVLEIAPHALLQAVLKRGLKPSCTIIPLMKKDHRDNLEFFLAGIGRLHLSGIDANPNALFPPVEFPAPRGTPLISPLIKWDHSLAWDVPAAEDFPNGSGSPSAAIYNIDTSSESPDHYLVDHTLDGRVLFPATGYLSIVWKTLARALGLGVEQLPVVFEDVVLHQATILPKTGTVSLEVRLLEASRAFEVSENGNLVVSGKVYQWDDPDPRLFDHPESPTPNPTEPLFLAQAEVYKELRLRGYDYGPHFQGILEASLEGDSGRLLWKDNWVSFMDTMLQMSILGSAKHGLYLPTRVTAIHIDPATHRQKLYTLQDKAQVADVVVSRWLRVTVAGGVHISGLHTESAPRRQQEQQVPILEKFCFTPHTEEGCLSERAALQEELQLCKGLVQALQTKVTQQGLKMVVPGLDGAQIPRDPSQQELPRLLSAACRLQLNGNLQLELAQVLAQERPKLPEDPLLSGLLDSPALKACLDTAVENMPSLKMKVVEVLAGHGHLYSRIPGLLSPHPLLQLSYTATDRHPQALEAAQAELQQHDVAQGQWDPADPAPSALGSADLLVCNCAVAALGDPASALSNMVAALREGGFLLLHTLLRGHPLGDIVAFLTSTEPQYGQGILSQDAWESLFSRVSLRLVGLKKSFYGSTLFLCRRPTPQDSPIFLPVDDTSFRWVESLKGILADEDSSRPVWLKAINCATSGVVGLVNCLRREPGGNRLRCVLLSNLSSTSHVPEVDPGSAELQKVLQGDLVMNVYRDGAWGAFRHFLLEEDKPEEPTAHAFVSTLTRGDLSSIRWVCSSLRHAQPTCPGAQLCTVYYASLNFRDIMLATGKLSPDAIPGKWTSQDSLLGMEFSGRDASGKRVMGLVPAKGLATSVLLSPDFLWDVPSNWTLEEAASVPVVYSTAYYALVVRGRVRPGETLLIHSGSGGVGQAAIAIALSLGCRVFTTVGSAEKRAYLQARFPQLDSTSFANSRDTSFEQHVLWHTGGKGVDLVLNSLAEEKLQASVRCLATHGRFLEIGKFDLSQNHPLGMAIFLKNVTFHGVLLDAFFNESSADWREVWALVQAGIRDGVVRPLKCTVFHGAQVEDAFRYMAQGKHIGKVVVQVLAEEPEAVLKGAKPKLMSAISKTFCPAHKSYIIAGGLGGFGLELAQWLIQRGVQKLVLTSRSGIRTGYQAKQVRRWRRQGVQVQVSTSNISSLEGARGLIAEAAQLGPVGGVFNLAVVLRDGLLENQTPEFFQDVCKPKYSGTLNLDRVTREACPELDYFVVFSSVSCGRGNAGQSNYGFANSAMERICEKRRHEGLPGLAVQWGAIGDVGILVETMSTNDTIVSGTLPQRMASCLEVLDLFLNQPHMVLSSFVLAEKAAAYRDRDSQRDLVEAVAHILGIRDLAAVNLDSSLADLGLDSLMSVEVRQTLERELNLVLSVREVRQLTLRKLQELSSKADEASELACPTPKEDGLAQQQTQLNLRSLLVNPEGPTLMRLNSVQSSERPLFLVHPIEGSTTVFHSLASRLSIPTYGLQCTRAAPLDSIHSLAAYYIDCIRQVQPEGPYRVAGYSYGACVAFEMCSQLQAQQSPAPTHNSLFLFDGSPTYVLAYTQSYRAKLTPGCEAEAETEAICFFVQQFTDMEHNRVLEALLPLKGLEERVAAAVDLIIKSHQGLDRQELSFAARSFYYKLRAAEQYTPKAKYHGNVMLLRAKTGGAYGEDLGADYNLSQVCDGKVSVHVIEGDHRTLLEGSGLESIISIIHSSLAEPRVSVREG

Fatty acid synthase [18] = molecular target: T5, Fatty acid synthase; assay: inhibition of human FAS-TE enzyme activity – biochemical, endpoint fluorescence intensity, uHTS hits, dose response (AID 624327); format: functional;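 note: fluorescence from hydrolysis of an O-methyl fluorescein acyl ester substrate by the enzyme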

**Q.** Which EC50 [1] does the source give for `Oc1ccc(Nc2nc3ccccc3nc2Nc2ccc(O)cc2)cc1` here?
**A.** 117 µM (active)

**Q.** What about the EC50 [2] of the same molecule?
**A.** 1.25 µM (active)

**Q.** And the EC50 [3]?
**A.** > 120 µM (not active)

**Q.** And the EC50 [4]?
**A.** > 195 µM (not active)

**Q.** And the IC50 [5]?
**A.** 67.3 µM (inactive)

**Q.** What about the EC50 [6] of the same molecule?
**A.** 21.4 µM (active)

**Q.** What about the EC50 [7] of the same molecule?
**A.** 4.43 µM (active)

**Q.** What about the EC50 [8] of the same molecule?
**A.** > 30 µM (not active)

**Q.** What about the EC50 [9] of the same molecule?
**A.** 1.19 µM (active)

**Q.** What does the source list for `COC(=O)C1=NN(C(=O)c2ccc(C)cc2)C(O)(c2ccc(Cl)cc2)C1` (stereo not drawn)?
**A.** EC50 [10]: 37.7 µM (inconclusive); EC50 [11]: 6.68 µM (active); EC50 [12]: > 300 µM (not active)

**Q.** With `O=C(O)c1cc([N+](=O)[O-])c(Sc2nc3ccccc3[nH]2)c([N+](=O)[O-])c1` as the molecule, how does the IC50 (Genome polyprotein) read?
**A.** > 100 µM (active)

**Q.** For `CCOC(=O)[C@@H]1[C@H]2COc3ccc(Br)cc3[C@@H]2N2C(=O)N(c3ccc(F)cc3)C(=O)[C@@]12C`, which AC50 [13] is on record?
**A.** 3.77 µM (active)

**Q.** And the AC50 [14]?
**A.** 4.5 µM (active)

**Q.** What about the AC50 [15] of the same molecule?
**A.** 5.78 µM (active)

**Q.** And the AC50 [16]?
**A.** 1.72 µM (active)

**Q.** With `COc1ccccc1N1C(=O)NC(=O)/C(=C\c2cnn(-c3ccccc3)c2)C1=O` as the molecule, how does the IC50 (Genome polyprotein) read?
**A.** > 100 µM (active)

**Q.** For `Cc1cc(C)c(NC(=O)COC(=O)c2cc([N+](=O)[O-])ccc2N2CCOCC2)c(C)c1`, which IC50 (Fatty acid synthase [17]) is on record?
**A.** 10.8 µM (active)

**Q.** And the IC50 (Fatty acid synthase [18])?
**A.** 6.16 µM (active)

**Q.** With `CC(=O)c1c(O)cc2c3c1OC(C)(C)C1CCC(C)(CC31)O2` (stereo not drawn) as the molecule, how does the AC50 [13] read?
**A.** 13.1 µM (active)

**Q.** And the AC50 [14]?
**A.** 9.92 µM (active)

**Q.** What about the AC50 [15] of the same molecule?
**A.** 1.07 µM (active)

**Q.** What about the AC50 [16] of the same molecule?
**A.** 5.16 µM (active)

**Q.** Which results are given for `Cc1ccc2cc(C#N)c(NCCNC(=O)C3CCC3)nc2c1C`?
**A.** AC50 [13]: 11 µM (active); AC50 [14]: 8.62 µM (active); AC50 [15]: 9.78 µM (active); AC50 [16]: 9.91 µM (active)

**Q.** Which AC50 [13] does the source give for `COc1ccc(CCNc2oc(-c3cccc4ccccc34)nc2P(=O)(OC)OC)cc1OC` here?
**A.** 10.6 µM (active)

**Q.** And the AC50 [14]?
**A.** 1.1 µM (active)

**Q.** And the AC50 [15]?
**A.** 7.26 µM (active)

**Q.** And the AC50 [16]?
**A.** 5 µM (active)

**Q.** For `Cc1ccn2cc(CCNC(=O)C3CC=CCC3C(=O)O)nc2c1` (stereo not drawn), which EC50 [11] is on record?
**A.** 3.76 µM (active)
